Assay results as given in US20240158446A1, “CYCLIC COMPOUND HAVING SELECTIVE INHIBITORY ACTION ON KRAS OVER HRAS AND NRAS” (CHUGAI SEIYAKU KABUSHIKI KAISHA, priority 2021, published 2024).
pKd: −log10 of the molar value.

Experiments:
[1] = system: human lung cancer strain NCI-H441; test: cells; conditions: NCI-H441, 96 h, read-out: NCI-H441 IC50 (nM), NCI-H441 cell proliferation, 4 days, CellTiter-Glo;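 note: cell proliferation inhibition after four days measured by CellTiter-Glo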
[2] = target: GDP-bound KRAS wild-type protein (Homo sapiens, UniProt P01116); test: Binding to KRAS by surface plasmon resonance (SPR), Single Cycle Kinetics; conditions: SPR, Single Cycle Kinetics, GDP-bound KRAS wild-type protein; read-out: KRAS KD
[3] = target: GDP-bound NRAS wild-type protein (Homo sapiens, UniProt P01111); test: Binding to NRAS by surface plasmon resonance (SPR), Single Cycle Kinetics; conditions: ratio of KD for GDP-bound NRAS wild-type protein to KD for KRAS, SPR
[4] = target: GDP-bound HRAS wild-type protein (Homo sapiens, UniProt P01112); test: Binding to HRAS by surface plasmon resonance (SPR), Single Cycle Kinetics; conditions: ratio of KD for GDP-bound HRAS wild-type protein to KD for KRAS, SPR
GDP-bound HRAS wild-type protein, sequence (P01112 whole entry): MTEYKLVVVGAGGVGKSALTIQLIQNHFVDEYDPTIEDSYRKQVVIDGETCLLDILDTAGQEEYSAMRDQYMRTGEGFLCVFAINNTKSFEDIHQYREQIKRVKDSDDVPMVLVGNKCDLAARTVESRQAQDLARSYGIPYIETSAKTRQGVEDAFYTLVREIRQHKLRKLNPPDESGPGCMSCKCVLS

GDP-bound KRAS wild-type protein, sequence (P01116 whole entry): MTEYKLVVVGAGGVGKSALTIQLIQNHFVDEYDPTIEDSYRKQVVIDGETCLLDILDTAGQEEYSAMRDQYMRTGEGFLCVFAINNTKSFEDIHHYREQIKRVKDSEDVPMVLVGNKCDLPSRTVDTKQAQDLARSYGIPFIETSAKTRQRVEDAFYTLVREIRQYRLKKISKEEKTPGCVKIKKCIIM
GDP-bound NRAS wild-type protein, sequence (P01111 whole entry): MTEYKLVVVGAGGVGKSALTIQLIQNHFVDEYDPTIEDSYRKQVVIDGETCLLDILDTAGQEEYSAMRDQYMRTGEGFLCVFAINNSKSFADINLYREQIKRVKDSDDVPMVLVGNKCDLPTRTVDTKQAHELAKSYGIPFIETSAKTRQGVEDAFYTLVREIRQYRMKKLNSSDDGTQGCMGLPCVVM

SMILES	IC50 [1] [nM]	pKd [2]	NRAS/KRAS (KD ratio) [3]	HRAS/KRAS (KD ratio) [4]
CC[C@H](C)[C@@H]1NC(=O)[C@H](CC(C)C)N(C)C(=O)C[C@@H](C(=O)N(C)CC)N(C)C(=O)[C@H](C2CCCC2)N(C)C(=O)C2(CC(C)(C)C2)NC(=O)[C@@H]2C[C@@H](F)CN2C(=O)[C@H](CCc2cc(F)c(C(F)(F)F)c(F)c2)NC(=O)CN(C)C(=O)[C@H](Cc2ccc(C(F)(F)F)cc2)N2CC/C=C\C[C@@H](C2=O)N(C)C(=O)CN(C)C1=O [PP1694]	4.1	10.29	A (a compound having 10 or more and less than 20 is denoted as A)	A (a compound having 10 or more and less than 20 is denoted as A)
CCCN(C)C(=O)[C@@H]1CC(=O)N(C)[C@@H](COC)C(=O)N[C@@H]([C@@H](C)CC)C(=O)N(C)CC(=O)N(C)[C@H]2C/C=C\CCN(C2=O)[C@@H](Cc2ccc(C(F)(F)F)cc2)C(=O)N(C)CC(=O)N[C@@H](CCc2cc(F)c(C(F)(F)F)c(F)c2)C(=O)N2C[C@H](F)C[C@H]2C(=O)NC2(CC(C)(C)C2)C(=O)N(C)[C@@H](C2CCCC2)C(=O)N1C [PP1696]	2.9	10.39	AA (a compound having 20 or more is denoted as AA)	A (a compound having 10 or more and less than 20 is denoted as A)
CCCN(C)C(=O)[C@@H]1CC(=O)N(C)[C@@H](CC)C(=O)N[C@@H]([C@@H](C)CC)C(=O)N(C)CC(=O)N(C)[C@H]2C/C=C\CCN(C2=O)[C@@H](Cc2ccc(C(F)(F)F)cc2)C(=O)N(C)CC(=O)N[C@@H](CCc2cc(F)c(C(F)(F)F)c(F)c2)C(=O)N2C[C@H](OCC)C[C@H]2C(=O)NC2(CCC2)C(=O)N(C)[C@@H](C2CCCC2)C(=O)N1C [PP1699]	2.5	10.02	A (a compound having 10 or more and less than 20 is denoted as A)	A (a compound having 10 or more and less than 20 is denoted as A)
CCCN(C)C(=O)[C@@H]1CC(=O)N(C)[C@@H](CC(F)F)C(=O)N[C@@H]([C@@H](C)CC)C(=O)N(C)CC(=O)N(C)[C@H]2C/C=C\CCN(C2=O)[C@@H](Cc2ccc(C(F)(F)F)cc2)C(=O)N(C)CC(=O)N[C@@H](CCc2cc(F)c(C(F)(F)F)c(F)c2)C(=O)N2C[C@H](OCC)C[C@H]2C(=O)NC2(CCC2)C(=O)N(C)[C@@H](C2CCCC2)C(=O)N1C [PP1700]	3.6	9.96	A (a compound having 10 or more and less than 20 is denoted as A)	A (a compound having 10 or more and less than 20 is denoted as A)
C#CC[C@H]1C(=O)N[C@@H]([C@@H](C)CC)C(=O)N(C)CC(=O)N(C)[C@H]2C/C=C\CCN(C2=O)[C@@H](Cc2ccc(C(F)(F)F)cc2)C(=O)N(C)CC(=O)N[C@@H](CCc2cc(F)c(C(F)(F)F)c(F)c2)C(=O)N2C[C@H](OCC)C[C@H]2C(=O)NC2(CCC2)C(=O)N(C)[C@@H](C2CCCC2)C(=O)N(C)[C@H](C(=O)N(C)CCC)CC(=O)N1C [PP1703]	7.2	9.89	A (a compound having 10 or more and less than 20 is denoted as A)	A (a compound having 10 or more and less than 20 is denoted as A)
CCCN(C)C(=O)[C@@H]1CC(=O)N(C)[C@@H](COC)C(=O)N[C@@H]([C@@H](C)CC)C(=O)N(C)CC(=O)N(C)[C@H]2C/C=C\CCN(C2=O)[C@@H](Cc2ccc(C(F)(F)F)cc2)C(=O)N(C)CC(=O)N[C@@H](CCc2cc(F)c(C(F)(F)F)c(F)c2)C(=O)N2C[C@H](OCC)C[C@H]2C(=O)NC2(CCC2)C(=O)N(C)[C@@H](C2CCCC2)C(=O)N1C [PP1706]	6.7	10.12	A (a compound having 10 or more and less than 20 is denoted as A)	A (a compound having 10 or more and less than 20 is denoted as A)
CC[C@H](C)[C@@H]1NC(=O)[C@H](C)N(C)C(=O)C[C@@H](C(=O)N(C)C)N(C)C(=O)[C@H](C2CCCC2)N(C)C(=O)C2(CC(C)(C)C2)NC(=O)[C@@H]2CC(F)(F)CN2C(=O)[C@H](CCc2cc(F)c(C(F)(F)F)c(F)c2)NC(=O)CN(C)C(=O)[C@H](Cc2ccc(C(F)(F)F)cc2)N2CC/C=C\C[C@@H](C2=O)N(C)C(=O)CN(C)C1=O [PP1707]	7.4	10.43	AA (a compound having 20 or more is denoted as AA)	A (a compound having 10 or more and less than 20 is denoted as A)
CC[C@H](C)[C@@H]1NC(=O)[C@H](CC(F)(F)F)N(C)C(=O)C[C@@H](C(=O)N(C)C)N(C)C(=O)[C@H](C2CCCC2)N(C)C(=O)C2(CC(C)(C)C2)NC(=O)[C@@H]2CC(F)(F)CN2C(=O)[C@H](CCc2cc(F)c(C(F)(F)F)c(F)c2)NC(=O)CN(C)C(=O)[C@H](Cc2ccc(C(F)(F)F)cc2)N2CC/C=C\C[C@@H](C2=O)N(C)C(=O)CN(C)C1=O [PP1710]	4.1	10.00	A (a compound having 10 or more and less than 20 is denoted as A)	B (a compound having 3 or more and less than 10 is denoted as B)

Continued by falling IC50 [1], values first:

IC50 [1] [nM]	pKd [2]	SMILES	NRAS/KRAS (KD ratio) [3]	HRAS/KRAS (KD ratio) [4]
10.3	9.85	CCCC[C@H]1C(=O)N[C@@H]([C@@H](C)CC)C(=O)N(C)CC(=O)N(C)[C@H]2C/C=C\CCN(C2=O)[C@@H](Cc2ccc(C(F)(F)F)cc2)C(=O)N(C)CC(=O)N[C@@H](CCc2cc(F)c(C(F)(F)F)c(F)c2)C(=O)N2C[C@H](OCC)C[C@H]2C(=O)NC2(CCC2)C(=O)N(C)[C@@H](C2CCCC2)C(=O)N(C)[C@H](C(=O)N(C)CCC)CC(=O)N1C [PP1704]	A (a compound having 10 or more and less than 20 is denoted as A)	A (a compound having 10 or more and less than 20 is denoted as A)
8	9.85	CCCN(C)C(=O)[C@@H]1CC(=O)N(C)[C@@H](CC2CCC2)C(=O)N[C@@H]([C@@H](C)CC)C(=O)N(C)CC(=O)N(C)[C@H]2C/C=C\CCN(C2=O)[C@@H](Cc2ccc(C(F)(F)F)cc2)C(=O)N(C)CC(=O)N[C@@H](CCc2cc(F)c(C(F)(F)F)c(F)c2)C(=O)N2C[C@H](OCC)C[C@H]2C(=O)NC2(CCC2)C(=O)N(C)[C@@H](C2CCCC2)C(=O)N1C [PP1705]	AA (a compound having 20 or more is denoted as AA)	A (a compound having 10 or more and less than 20 is denoted as A)
5.1	10.12	CCCOC[C@H]1C(=O)N[C@@H]([C@@H](C)CC)C(=O)N(C)CC(=O)N(C)[C@H]2C/C=C\CCN(C2=O)[C@@H](Cc2ccc(C(F)(F)F)cc2)C(=O)N(C)CC(=O)N[C@@H](CCc2cc(F)c(C(F)(F)F)c(F)c2)C(=O)N2C[C@H](F)C[C@H]2C(=O)NC2(CC(C)(C)C2)C(=O)N(C)[C@@H](C2CCCC2)C(=O)N(C)[C@H](C(=O)N(C)CCC)CC(=O)N1C [PP1698]	A (a compound having 10 or more and less than 20 is denoted as A)	A (a compound having 10 or more and less than 20 is denoted as A)
5	10.03	CCC[C@H]1C(=O)N[C@@H]([C@@H](C)CC)C(=O)N(C)CC(=O)N(C)[C@H]2C/C=C\CCN(C2=O)[C@@H](Cc2ccc(C(F)(F)F)cc2)C(=O)N(C)CC(=O)N[C@@H](CCc2cc(F)c(C(F)(F)F)c(F)c2)C(=O)N2CC(F)(F)C[C@H]2C(=O)NC2(CC(C)(C)C2)C(=O)N(C)[C@@H](C2CCCC2)C(=O)N(C)[C@H](C(=O)N(C)C)CC(=O)N1C [PP1711]	A (a compound having 10 or more and less than 20 is denoted as A)	B (a compound having 3 or more and less than 10 is denoted as B)
4.9	10.07	CCCN(C)C(=O)[C@@H]1CC(=O)N(C)[C@@H](CC(F)(F)F)C(=O)N[C@@H]([C@@H](C)CC)C(=O)N(C)CC(=O)N(C)[C@H]2C/C=C\CCN(C2=O)[C@@H](Cc2ccc(C(F)(F)F)cc2)C(=O)N(C)CC(=O)N[C@@H](CCc2cc(F)c(C(F)(F)F)c(F)c2)C(=O)N2C[C@H](OCC)C[C@H]2C(=O)NC2(CCC2)C(=O)N(C)[C@@H](C2CCCC2)C(=O)N1C [PP1702]	A (a compound having 10 or more and less than 20 is denoted as A)	A (a compound having 10 or more and less than 20 is denoted as A)
3.8	10.24	CC[C@H](C)[C@@H]1NC(=O)[C@H](CC(F)F)N(C)C(=O)C[C@@H](C(=O)N(C)C)N(C)C(=O)[C@H](C2CCCC2)N(C)C(=O)C2(CC(C)(C)C2)NC(=O)[C@@H]2CC(F)(F)CN2C(=O)[C@H](CCc2cc(F)c(C(F)(F)F)c(F)c2)NC(=O)CN(C)C(=O)[C@H](Cc2ccc(C(F)(F)F)cc2)N2CC/C=C\C[C@@H](C2=O)N(C)C(=O)CN(C)C1=O [PP1709]	A (a compound having 10 or more and less than 20 is denoted as A)	A (a compound having 10 or more and less than 20 is denoted as A)
3.6	10.33	CCCOC[C@H]1C(=O)N[C@@H]([C@@H](C)CC)C(=O)N(C)CC(=O)N(C)[C@H]2C/C=C\CCN(C2=O)[C@@H](Cc2ccc(C(F)(F)F)cc2)C(=O)N(C)CC(=O)N[C@@H](CCc2cc(F)c(C(F)(F)F)c(F)c2)C(=O)N2C[C@H](F)C[C@H]2C(=O)NC2(CC(C)(C)C2)C(=O)N(C)[C@@H](C2CCCC2)C(=O)N(C)[C@H](C(=O)N(C)CC)CC(=O)N1C [PP1697]	A (a compound having 10 or more and less than 20 is denoted as A)	A (a compound having 10 or more and less than 20 is denoted as A)
